This is an account of results in article PMC12155840 (Molecules, 2025).

The target of data set [1] is T1, human A1 adenosine receptor (hA1R) (Homo sapiens, UniProt P30542).
T1 sequence (P30542 1-326): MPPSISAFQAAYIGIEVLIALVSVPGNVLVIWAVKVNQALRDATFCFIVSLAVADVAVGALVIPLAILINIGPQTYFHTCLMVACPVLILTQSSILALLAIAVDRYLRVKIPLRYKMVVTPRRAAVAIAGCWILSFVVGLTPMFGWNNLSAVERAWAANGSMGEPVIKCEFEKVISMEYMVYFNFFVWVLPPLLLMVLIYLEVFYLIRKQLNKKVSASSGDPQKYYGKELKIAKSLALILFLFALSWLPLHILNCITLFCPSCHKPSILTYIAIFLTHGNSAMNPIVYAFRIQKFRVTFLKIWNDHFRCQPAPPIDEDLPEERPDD
As to the kind of experiment: cAMP inhibition assay, allosteric mode with adenosine as orthosteric agonist, CHO-K1-hA1R cells; operational allosteric ternary complex model. The class given is cell-based. Also noted: host or cells: CHO-K1. Particulars: for Allosteric modulation of adenosine-induced cAMP inhibition (shift of concentration-response curve): test compound at 20 µM; for Logαβ (binding and activation cooperativity) / αβ / τB / Kb / Kd / LogτB (operational efficacy as allosteric agonist): orthosteric agonist adenosine; for αβ / τB: antilogarithm; for Kb: antilogarithm of logKB; for Kd: operational model fit, read-out: logKB (converted).

Data set [2] has as its target T1, human A1 adenosine receptor (hA1R). As to the kind of experiment: cAMP inhibition assay, direct agonist mode, in CHO-K1-hA1R cells (Cisbio cAMP Gi kit, forskolin co-stimulation). Particulars: 0.01 to 50 µM.
Data set [3] concerns the target T2, human A1 receptor (Homo sapiens, UniProt P30542).
T2 construct: host or cells: CHO-K1
T2 sequence (P30542 1-326): T1 sequence (P30542 1-326)
As to the kind of experiment: cAMP inhibition assay, allosteric mode with CPA as orthosteric agonist (DiscoverX HitHunter cAMP XS+), CHO-K1 cells overexpressing the human A1 receptor; operational allosteric ternary complex model. Conditions: for αβ / τB: antilogarithm; for Kb: antilogarithm of logKB; for Kd: operational model fit, read-out: logKB (converted). Type of data set: cell-based. The procedure:
Experiments with CPA as an agonist: In experiments with CPA as an agonist, inhibition of intracellular cAMP production in response to CPA stimulation of the receptor was determined using a functional assay in CHO-K1 cells overexpressing the human A1 receptor (Eurofins DiscoverX Corporation, Fremont, CA, USA). Cells were seeded in a total volume of 20 μL into white-walled, 384-well microplates and incubated at 37 °C for the appropriate time prior to testing.
Experiments with CPA as an agonist: cAMP production was measured using the DiscoverX HitHunter cAMP XS+ assay (Eurofins DiscoverX Corporation, Fremont, CA, USA). For allosteric modulation studies, cells were pre-incubated with allosteric modulators at various concentrations, followed by induction with the agonist CPA at its EC20 concentration (i.e., the concentration eliciting 20% of the maximal response). Media were aspirated from cells and replaced with 10 μL of HBSS (10 mM HEPES). Sample stocks were diluted to prepare a 4-fold higher (4x) concentration than the final in-well concentration. Next, 5 μL of the 4x compound was added to the cells and incubated at room temperature or 37 °C for 10 min. This was followed by the addition of 5 μL of the 4x EC20 agonist solution and further incubation for 30 min at 37 °C. To stimulate intracellular cAMP production and provide a dynamic range for detecting Gi-mediated inhibition, forskolin at its EC80 was included in all experiments. The final DMSO (vehicle) concentration was 1%. After incubation with compounds, the assay signal was generated by adding 5 uL of and cAMP XS+ Ab reagent followed by 20 μL of the cAMP XS+ ED/CL lysis cocktail and then incubating for 1 h. This was followed by adding 20 μL of the cAMP XS+ EA reagent and incubating for 2 h at room temperature. Chemiluminescent signals were detected using a PerkinElmer EnVision™ instrument. Compound activity was analyzed using the CBIS data analysis suite (ChemInnovation, San Diego, CA, USA). Control dose–response curves were generated using CPA as the agonist. Data were normalized to the maximal response observed with CPA (positive control) and the minimal response observed with vehicle (1% DMSO, negative control).
The operational allosteric ternary complex model (ATCM) accounts for the ability of an allosteric ligand to modify affinity and/or efficacy and even activate a receptor independently. This model describes a simplified case for positive allosteric modulators (PAMs), where the orthosteric ligand is a full agonist.
Explanation of parameters: A = Agonist concentration; B = Allosteric modulator concentration; KB = Dissociation constant for the modulator; αβ = Allosteric coupling constant; τB = Intrinsic activity of the modulator; EC50 = Half-maximal effective concentration of the agonist; n = Hill coefficient; Emax = Maximal system response; Basal = Basal activity (response in the absence of any ligand); Span = Emax − Basal (difference between maximum and basal activity).
The response curve Y is defined as follows: Y=Basal+Span·(Part1)/(Part1+Part2) where Part1=A·KB+αβ·B+τB·B·EC50^n Part2=(EC50^n·(KB+B))^n Span=Emax−Basal

The test system of data set [4] is rat A1 receptors. Also noted: method as in PMID 30644086. Particulars: 1, 10 and 30 µM, rat A1 receptors in HEK293T cells; cited from earlier work.
In data set [5] the test system is human A1 receptors. The arrangement: method as in PMID 30644086. Particulars: 1, 10 and 30 µM, human A1 receptors in HEK293T cells; cited from earlier work.
On the set-up of data set [6]: method as in PMID 19156843. Particulars: isolated perfused rat livers; cited from earlier work.
Details of data set [7]: method as in PMID 22411722. Conditions: rats; cited from earlier work.
On the set-up of data set [8]: method as in PMID 16220575. Conditions: human, oral 600 mg valerian extract; cited from earlier work.
The subject of data set [9] is ECV304 human cell line. Also noted: method as in PMID 18704879. Particulars: ECV304 in vitro BBB model; cited from earlier work.

Consider `COc1cc([C@H]2OC[C@]3(O)[C@@H](c4ccc(O)c(OC)c4)OC[C@H]23)ccc1O` [8-Hydroxypinoresinol, 8-Hydroxy-pinoresinol], for which, in data set [1], the “Allosteric modulation of adenosine-induced cAMP inhibition (shift of concentration-response curve)” value is reported as “no significant shift”.
With `O=C(/C=C/c1ccc(O)c(O)c1)O[C@@H]1C[C@](O)(C(=O)O)C[C@@H](O)[C@H]1O` [Chlorogenic acid, chlorogenic acid], the “Allosteric modulation of adenosine-induced cAMP inhibition (shift of concentration-response curve)” value in [1] is “no significant shift”.
As to `O=C(O)/C=C/c1ccc(O)cc1` [Coumaric acid, coumaric acid], the “Allosteric modulation of adenosine-induced cAMP inhibition (shift of concentration-response curve)” value in data set [1] is “no significant shift”.
Turning to `COc1cc(/C=C/C(=O)O)ccc1O` [Ferulic acid, trans-ferulic acid], the “Allosteric modulation of adenosine-induced cAMP inhibition (shift of concentration-response curve)” value in [1] was “no significant shift”.
Same read-out and setting: in the case of `COc1ccc([C@@H]2CC(=O)c3c(O)cc(O[C@@H]4O[C@H](CO[C@@H]5O[C@@H](C)[C@H](O)[C@@H](O)[C@H]5O)[C@@H](O)[C@H](O)[C@H]4O)cc3O2)cc1O` [Hesperidin] it was “slight leftward shift in the dose-response curve”; in that of `COc1ccc(/C=C/C(=O)O)cc1O` [Isoferulic acid, trans-isoferulic acid], “no significant shift”.
On to `COc1cc(C[C@]2(O)CO[C@@H](c3ccc(O)c(OC)c3)[C@@H]2CO)ccc1O` [Olivil, (−)-olivil], for which the “Allosteric modulation of adenosine-induced cAMP inhibition (shift of concentration-response curve)” value in [1] is on record as “no significant shift”.
Turning to `COc1cc([C@H]2OC[C@](O)(Cc3ccc(O[C@@H]4O[C@H](CO)[C@@H](O)[C@H](O)[C@H]4O)c(OC)c3)[C@@H]2CO)ccc1O` [Olivil-4-O-glucoside, (−)-olivil 4′-O-glucoside], in [1], the “Allosteric modulation of adenosine-induced cAMP inhibition (shift of concentration-response curve)” value was “no significant shift”.
Turning to `COc1cc([C@H]2OC[C@H]3[C@@H]2CO[C@@H]3c2ccc(O[C@@H]3O[C@H](CO)[C@@H](O)[C@H](O)[C@H]3O)c(OC)c2)ccc1O[C@@H]1O[C@H](CO)[C@@H](O)[C@H](O)[C@H]1O` [Pinoresinol diglucoside, pinoresinol-diglucoside], the “Allosteric modulation of adenosine-induced cAMP inhibition (shift of concentration-response curve)” value in data set [1] was “no significant shift”.
On to `COc1cc([C@H]2OC[C@H]3[C@@H]2CO[C@@H]3c2ccc(O)c(OC)c2)ccc1O` [Pinoresinol, (+)-pinoresinol], for which, in data set [1], the “Logαβ (binding and activation cooperativity)” value (“Logαβ” below) was 0.53; the αβ is listed as 3.42; the τB came out at 0.93; the Kb was 25.8 µM. Further, the Kd in [1] is 26.3 µM. The “Intrinsic agonist activity: effect on forskolin-stimulated cAMP levels in the absence of adenosine” value in data set [2] was “no significant reduction in cAMP levels”. Also, in data set [3], the “Logαβ” value was −0.1; the “LogτB (operational efficacy as allosteric agonist)” value (shortened to “LogτB”) is 0.22; the αβ is recorded as 0.79; the τB was determined as 1.66. For the same compound, in [3], the Kb was found to be 316 µM and the Kd is 316 µM.
As for `COc1cc([C@H]2OC[C@H]3[C@@H]2CO[C@@H]3c2ccc(O[C@@H]3O[C@H](CO)[C@@H](O)[C@H](O)[C@H]3O)c(OC)c2)ccc1O` [Pinoresinol-4-O-glucoside, pinoresinol-4-O-Glucoside], in data set [1], the “Allosteric modulation of adenosine-induced cAMP inhibition (shift of concentration-response curve)” value is given as “no significant shift”.
For the compound `Nc1scc(-c2cccc(C(F)(F)F)c2)c1C(=O)c1ccccc1` [VCP 171, reference compound], the “effect on binding affinity of orthosteric agonists” value in data set [4] is listed as “enhanced the binding affinity of orthosteric agonists”. In [1], the “Logαβ” value is −0.43; the “LogτB” value amounted to 0.42; the αβ stood at 0.37; the τB worked out at 2.66. In data set [1], the Kb came out at 9.38 µM and the Kd was 9.55 µM. Also, the “effect on binding affinity of orthosteric agonists” value in [5] is “enhanced the binding affinity of orthosteric agonists”. In data set [3], the “Logαβ” value turned out to be 1.11; the “LogτB” value was 0.3; the αβ was 12.73; the τB is recorded as 1.99. In addition, in [3], the Kb is 10.8 µM and the Kd was 11 µM.
Regarding `CC1=C2[C@H](/C=C(\C)C(=O)O)CC[C@@H](C)[C@H]2CC1` [Valerenic Acid, Valerenic acid], in data set [1], the “Logαβ” value is listed as 0.68; the “LogτB” value is reported as 0.77; the αβ is 4.79; the τB turned out to be 5.98. Further, the Kb in data set [1] amounted to 244 µM. Further, the hepatic metabolism result in data set [6] is “undergoes extensive hepatic metabolism, primarily through glucuronidation”. Further, in data set [2], the “Intrinsic agonist activity: effect on forskolin-stimulated cAMP levels in the absence of adenosine” value was “no significant reduction in cAMP levels”. Further, in data set [7], the oral bioavailability is 33.7%. Also, in [3], the “Logαβ” value is 1.36; the “LogτB” value is 0.49; the αβ stood at 23.38; the τB amounted to 3.14. Further, in data set [3], the Kb was found to be 17.4 µM. In data set [8], the half-life result is on record as “approximately 1.1 h” and the “peak plasma concentration of valerenic acid (molar)” value is reported as ~ 10 nM. Further, the “permeation of the BBB model relative to diazepam” value in data set [9] is on record as “significantly slower than diazepam”.
In the case of `CC(=O)O[C@@H]1CC(C)=C2[C@H]1[C@H](C)CC[C@H]2/C=C(\C)C(=O)O` [acetoxyvalerenic acid], in data set [9], the “permeation of the BBB model relative to diazepam” value is “significantly slower than diazepam”.
Consider `CC1=C2[C@@H]([C@H](C)CC[C@H]2/C=C(\C)C(=O)O)[C@H](O)C1` [hydroxyvalerenic acid], for which the “permeation of the BBB model relative to diazepam” value in data set [9] is “significantly slower than diazepam”.
